The values that follow come from patent US20170334899A1, “AMINO-SUBSTITUTED ISOTHIAZOLES” (Bayer Pharma Aktiengesellschaft, priority 2014, published 2017).

In test [1] the test system is HeLa. Nature of the test: Proliferation assay (crystal violet), HeLa. The test is classed as cell-based. The following applies: Homo sapiens, HeLa, 96 h, HeLa cells; 4 days incubation; crystal violet staining; read-out: IC50 inhibition of proliferation, HeLa. In short, it runs like this: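 Seed 1000–5000 cells/well, 10% FCS; 24 h later replace medium and add compound (0.001–10 μM, 0.5% DMSO); incubate 4 d; glutaraldehyde fix, 0.1% crystal violet pH 3.0, elute with 10% acetic acid; A595; 4-parameter IC50.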

Test [2] has as its target T1, CDK2/CycE (Homo sapiens, UniProt P24941).
T1 construct: GST; purchased ProQinase GmbH (Freiburg, Germany); host or cells: insect cells (Sf9)
The test is described as follows: CDK2/CycE kinase assay (TR-FRET). Type of test: biochemical. The following applies: avg, read-out: CDK2 avg (IC50 [mol/l]). From the text:
CDK2/CycE -inhibitory activity of compounds of the present invention was quantified employing the CDK2/CycE TR-FRET assay as described in the following paragraphs.
Recombinant fusion proteins of GST and human CDK2 and of GST and human CycE, expressed in insect cells (Sf9) and purified by Glutathion-Sepharose affinity chromatography, were purchased from ProQinase GmbH (Freiburg, Germany). As substrate for the kinase reaction biotinylated peptide biotin-Ttds-YISPLKSPYKISEG (C-terminus in amid form) was used which can be purchased e.g. form the company JERINI peptide technologies (Berlin, Germany).
For the assay 50 nl of a 100fold concentrated solution of the test compound in DMSO was pipetted into a black low volume 384we11 microtiter plate (Greiner Bio-One, Frickenhausen, Germany), 2 μl of a solution of CDK2/CycE in aqueous assay buffer [50 mM Tris/HCl pH 8.0, 10 mM MgCl2, 1.0 mM dithiothreitol, 0.1 mM sodium ortho-vanadate, 0.01% (v/v) Nonidet-P40 (Sigma)] were added and the mixture was incubated for 15 min at 22° C. to allow pre-binding of the test compounds to the enzyme before the start of the kinase reaction. Then the kinase reaction was started by the addition of 3 μl of a solution of adenosine-tri-phosphate (ATP, 16.7 μM=>final conc. in the 5 μl assay volume is 10 μM) and substrate (1.25 μM=>final conc. in the 5 μl assay volume is 0.75 μM) in assay buffer and the resulting mixture was incubated for a reaction time of 25 min at 22° C. The concentration of CDK2/CycE was adjusted depending of the activity of the enzyme lot and was chosen appropriate to have the assay in the linear range, typical concentrations were in the range of 130 ng/ml. The reaction was stopped by the addition of 5 μl of a solution of TR-FRET detection reagents (0.2 μM streptavidine-XL665 [Cisbio Bioassays, Codolet, France] and 1 nM anti-RB(pSer807/pSer811)-antibody from BD Pharmingen [#558389] and 1.2 nM LANCE EU-W1024 labeled anti-mouse IgG antibody [Perkin-Elmer, product no. AD0077, as an alternative a Terbium-cryptate-labeled anti-mouse IgG antibody from Cisbio Bioassays can be used]) in an aqueous EDTA-solution (100 mM EDTA, 0.2% (w/v) bovine serum albumin in 100 mM HEPES/NaOH pH 7.0).
The resulting mixture was incubated 1 h at 22° C. to allow the formation of complex between the phosphorylated biotinylated peptide and the detection reagents. Subsequently the amount of phosphorylated substrate was evaluated by measurement of the resonance energy transfer from the Eu-chelate to the streptavidine-XL. Therefore, the fluorescence emissions at 620 nm and 665 nm after excitation at 350 nm was measured in a TR-FRET reader, e.g. a Rubystar (BMG Labtechnologies, Offenburg, Germany) or a Viewlux (Perkin-Elmer). The ratio of the emissions at 665 nm and at […] was taken as the measure for the amount of phosphorylated substrate. The data were normalised (enzyme reaction without inhibitor=0% inhibition, all other assay components but no enzyme=100% inhibition).

`Cc1nsc(Nc2cnc(C(F)(F)F)cn2)c1C(=O)Nc1ccc(OCC2CCN(CC(F)F)C2)nc1` (stereo not shown) [Example 122, N-(6-{[1-(2,2-difluoroethyl)pyrrolidin-3-yl]methoxy}pyridin-3-yl)-3-methyl-5-{[5-(trifluoromethyl)pyrazin-2-yl]amino}-1,2-thiazole-4-carboxamide]: the IC50 in test [1] was 0.28 µM; in test [2] it was at least 20 µM.
The matching figures for `Cc1nsc(Nc2cnc3ccccc3n2)c1C(=O)Nc1ccc(C(=O)NC2CN(C(=O)OC(C)(C)C)CC(F)(F)C2)cc1` (stereo not shown) [Example 158, tert-butyl 3,3-difluoro-5-{[4-({[3-methyl-5-(quinoxalin-2-ylamino)-1,2-thiazol-4-yl]carbonyl}amino)benzoyl]amino} piperidine-1-carboxylate]: 3.2 µM and over 20 µM.
The matching figures for `Cc1nsc(Nc2cnc3ccccc3n2)c1C(=O)Nc1cccc(C(=O)N[C@@H](CCC(N)=O)C(=O)O)c1` [Example 103, N^2-[3-({[3-Methyl-5-(quinoxalin-2-ylamino)-1,2-thiazol-4-yl]carbonyl}amino)-benzoyl]glutamine]: 10 µM and at least 20 µM.
`Cc1nsc(Nc2cnc(C(F)(F)F)cn2)c1C(=O)Nc1ccc(O[C@@H]2CCN(CCC(F)(F)F)C[C@@H]2F)nc1` [Example 139, N-(6-{[(3S,4R)-3-fluoro-1-(3,3,3-trifluoropropyl)piperidin-4-yl]oxy}pyridin-3-yl)-3-methyl-5-{[5-(trifluoromethyl)pyrazin-2-yl]amino}-1,2-thiazole-4-carboxamide]: the IC50 was 0.26 µM in test [1] and over 20 µM in test [2].
The matching figures for `CC(=O)Nc1cc(NC(=O)c2c(C)nsc2Nc2ccc(C#N)cn2)ccc1F` [Example 152, N-(3-acetamido-4-fluorophenyl)-5-[(5-cyanopyridin-2-yl)amino]-3-methyl-1,2-thiazole-4-carboxamide]: over 10 µM and over 20 µM.
The matching figures for `Cc1nsc(Nc2cc(C#N)ccn2)c1C(=O)Nc1cccc(C(=O)N2CCCC2)c1` [Example 114, 5-[(4-Cyanopyridin-2-yl)amino]-3-methyl-N-[3-(pyrrolidin-1-ylcarbonyl)phenyl]-1,2-thiazole-4-carboxamide]: 10 µM and at least 20 µM.
For the compound `Cc1nsc(Nc2ccc(C#N)cn2)c1C(=O)Nc1ccc(NC2CCCN(C(=O)OC(C)(C)C)C2)nc1` (stereo not shown) [Example 171, tert-butyt 3-({5-[({5-[(5-cyanopyridin-2-yl)amino]-3-methyl-1,2-thiazol-4-yl}carbonyl)amino]pyridin-2-yl}amino)piperidine-1-carboxylate], the IC50 in test [1] is 6.2 µM; in test [2] it was over 20 µM.
Take `Cc1nsc(Nc2cnc3ccccc3n2)c1C(=O)Nc1ccc(C(=O)N2CCCN(CC(F)(F)F)CC2)cc1` [Example 159]: the IC50 in test [1] was 2.3 µM; in test [2] it was over 20 µM.
Consider `Cc1nsc(Nc2cnc3ccccc3n2)c1C(=O)Nc1cccc(-c2nnc(C(C)(C)C)o2)c1` [Example 107, N-[3-(5-tert-Butyl-1,3,4-oxadiazol-2-yl)phenyl]-3-methyl-5-(quinoxalin-2-ylamino)-1,2-thiazole-4-carboxamide], for which the IC50 is 3 µM in test [1] and at least 20 µM in test [2].
The matching figures for `Cc1nsc(Nc2cnc(C(F)(F)F)cn2)c1C(=O)Nc1ccc(OC[C@H]2CCN(CC(F)F)C2)nc1` [Example 132, N-(6-{[(3S)-1-(2,2-difluoroethyl)pyrrolidin-3-yl]methoxy}pyridin-3-yl)-3-methyl-5-{[5-(trifluoromethyl)pyrazin-2-yl]amino}-1,2-thiazole-4-carboxamide]: 0.45 µM and over 20 µM.
On the same counts, the results for `Cc1nsc(Nc2ccc(C#N)cn2)c1C(=O)Nc1cccc(S(C)(=O)=O)c1` [Example 150, 5-[(5-cyanopyridin-2-yl)amino]-3-methyl-N-[3-(methylsulfonyl)phenyl]-1,2-thiazole-4-carboxamide] are 2.8 µM and over 20 µM.
As to `Cc1noc(-c2cccc(NC(=O)c3c(C)nsc3Nc3cnc4ccccc4n3)c2)n1` [Example 106, 3-Methyl-N-[3-(3-methyl-1,2,4-oxadiazol-5-yl)phenyl]-5-(quinoxalin-2-ylamino)-1,2-thiazole-4-carboxamide], the IC50 is 1.7 µM in test [1] and at least 20 µM in test [2].
On the same counts, the results for `Cc1nsc(Nc2cnc3ccccc3n2)c1C(=O)Nc1cccc(C(=O)N2CCN(C)CC2)c1` [Example 102, 3-Methyl-N-{3-[(4-methylpiperazin-1-yl)carbonyl]phenyl}-5-(quinoxalin-2-ylamino)-1,2-thiazole-4-carboxamide] are 10 µM and at least 20 µM.
Consider `Cc1nsc(Nc2cnc(C(F)(F)F)cn2)c1C(=O)Nc1ccc(OC2CCN(CC(F)F)CC2)c(F)c1` [Example 164, N-(4-{[1-(2,2-difluoroethyl)piperidin-4-yl]oxy}-3-fluorophenyl)-3-methyl-5-{[5-(trifluoromethyl)pyrazin-2-yl]amino}-1,2-thiazole-4-carboxamide], for which the IC50 in test [1] is 0.16 µM; in test [2], over 20 µM.
Turning to `CCCCN1CC[C@H](Oc2ccc(NC(=O)c3c(C)nsc3Nc3cnc(C(F)(F)F)cn3)cn2)[C@H](F)C1` [Example 148, N-(6-{[(3R,4S)-1-butyl-3-fluoropiperidin-4-yl]oxy}pyridin-3-yl)-3-methyl-5-{[5-(trifluoromethyl)pyrazin-2-yl]amino}-1,2-thiazole-4-carboxamide], the values for the IC50 in test [1] and in test [2] were 0.37 µM and over 20 µM, respectively.
As for `Cc1nsc(Nc2cnc3ccccc3n2)c1C(=O)Nc1cccc(C(=O)N2CCNCC2)c1` [Example 101, 3-Methyl-N-[3-(piperazin-1-ylcarbonyl)phenyl]-5-(quinoxalin-2-ylamino)-1,2-thiazole-4-carboxamide], the IC50 in test [1] is 10 µM; in test [2], at least 20 µM.
For `Cc1nsc(Nc2cnc3ccccc3n2)c1C(=O)Nc1cccc(C(=O)N[C@H](C(=O)O)[C@@H](C)OC(C)(C)C)c1` [Example 104, O-tert-Butyl-N-[3-({[3-methyl-5-(quinoxalin-2-ylamino)-1,2-thiazol-4-yl]-carbonyl}amino)benzoyl]threonine], the IC50 in test [1] is 6.4 µM; in test [2], at least 20 µM.
For the compound `Cc1nsc(Nc2cncc(C(F)(F)F)n2)c1C(=O)Nc1ccc(OCC2CCN(C(=O)OC(C)(C)C)C2)nc1` (stereo not shown) [Example 110, tert-Butyl 3-{[(5-{[(3-methyl-5-{[6-(trifluoromethyl)pyrazin-2-yl]amino}-1,2-thiazol-4-yl)carbonyl]amino}pyridin-2-yl)oxy]methyl}pyrrolidine-1-carboxylate], the IC50 in test [1] is 0.85 µM; in test [2], at least 20 µM.
The matching figures for `Cc1nsc(Nc2ccc(C#N)cn2)c1C(=O)Nc1ccc(N[C@@H](C)C(=O)OC(C)(C)C)nc1` [Example 170, tert-butyl N-{5-[({5-[(5-cyanopyridin-2-yl)amino]-3-methyl-1,2-thiazol-4-yl}carbonyl)amino]pyridin-2-yl}alaninate]: over 10 µM and over 20 µM.
`CCCN1CC[C@@H](Oc2ccc(NC(=O)c3c(C)nsc3Nc3cnc(C(F)(F)F)cn3)cn2)[C@@H](F)C1` [Example 140, N-(6-{[(3S,4R)-3-fluoro-1-propylpiperidin-4-yl]oxy}pyridin-3-yl)-3-methyl-5-{[5-(trifluoromethyl)pyrazin-2-yl]amino}-1,2-thiazole-4-carboxamide]: the IC50 is 0.22 µM in test [1] and over 20 µM in test [2].
